Values quoted from earlier work as cited in patent US10813968B2, “Method of treating a human suffering from post exercise muscle soreness” (Provexis Natural Products Limited, priority 2012, dated 2020).

Conditions: 3 hours after supplementation supplying 200 μg folic acid

Question: With `Nc1nc2ncc(CNc3ccc(C(=O)N[C@@H](CCC(=O)O)C(=O)O)cc3)nc2c(=O)[nH]1` [folic acid] as the compound, how does the “typical plasma folate concentration” value read?
Answer: 5 ng/mL
